Values of other authors in PMC4387854 (Bioorganic & medicinal chemistry, 2013).
Marks after values point to notes of the source that are not given here.

What was measured:
[1] = female rats with MNU-initiated mammary tumors; ref Grubbs et al. 8
[2] = preclinical evaluation in rats and dogs or in human trials

What does the source list for `CC(=C/C=C/C(C)=C/C(=O)O)/C=C1\CCCc2ccccc21` [9cUAB30, (2E,4E,6Z,8Z)-8-(3’,4’-Dihydro-1’(2H)-naphthalen-1’-ylidene)-3,7-dimethyl-2,3,6-octatrienoinic acid]?
Serum Triglyceride Increase (%) [1]: 65% ^d; Increase in serum TG [2]: no increase
